What all share (assay type): cell-based
The subject of experiment [1] is Haemophilus influenzae. Briefly: MIC, Haemophilus influenzae (fastidious Gram negative, Mueller-Hinton broth). Conditions: Mueller-Hinton broth with hemin and NAD, 24 hours, 37° C., 5×10^4 CFU/well. On the procedure:
(§1) The following results were obtained on a standard in-vitro test system. The activity is described in terms of the minimum inhibitory concentration (MIC) determined by the agar-dilution technique with an inoculum size of 10^4 CFU/spot. Typically, compounds are active in the range 0.01 to 256 μg/ml.
(§2) Streptococci and enterococci were tested on agar supplemented with 5% defibrinated horse blood, an inoculum of 10^4 CFU/spot and an incubation temperature of 37° C. in an atmosphere of 5% carbon dioxide for 48 hours—blood is required for the growth of some of the test organisms. Fastidious Gram negative organisms were tested in Mueller-Hinton broth supplemented with hemin and NAD, grown aerobically for 24 hours at 37° C., and with an innoculum of 5×10^4 CFU/well.

In experiment [2] the test system is Moraxella catarrhalis. Briefly: MIC, Moraxella catarrhalis (fastidious Gram negative, Mueller-Hinton broth). The following applies: Mueller-Hinton broth with hemin and NAD, 24 hours, 37° C., 5×10^4 CFU/well. On the procedure: as §1, §2
In experiment [3] the test system is Enterococcus faecium. Briefly: MIC by agar dilution, Enterococcus faecium. Conditions: agar with 5% defibrinated horse blood, 10^4 CFU/spot, 37° C., 5% carbon dioxide, 48 hours. The protocol: as §1, §2
On the technique in general: Agar dilution tests growth on a series of plates holding different concentrations.

For experiment [4], the system named is Streptococcus pneumoniae. Briefly: MIC by agar dilution, Streptococcus pneumoniae. Conditions: agar with 5% defibrinated horse blood, 10^4 CFU/spot, 37° C., 5% carbon dioxide, 48 hours. On the procedure:
as §1, §2

Experiment [5] deals with Staphylococcus aureus MRQR (methicillin resistant and quinolone resistant). Briefly: MIC by agar dilution, Staphylococcus aureus MRQR. Conditions: 10^4 CFU/spot, 37° C., 24 hours. On the procedure: as §1
(§3) Staphylococci were tested on agar, using an inoculum of 10^4 CFU/spot and an incubation temperature of 37° C. for 24 hours—standard test conditions for the expression of methicillin resistance.

The test system of experiment [6] is Linezolid Resistant Streptococcus pneumoniae. Briefly: MIC by agar dilution, Linezolid Resistant Streptococcus pneumoniae. Conditions: agar with 5% defibrinated horse blood, 10^4 CFU/spot, 37° C., 5% carbon dioxide, 48 hours. On the procedure: as §1, §2
Experiment [7] concerns Staphylococcus aureus MSQS (methicillin sensitive and quinolone sensitive). Briefly: MIC by agar dilution, Staphylococcus aureus MSQS. The following applies: 10^4 CFU/spot, 37° C., 24 hours. The protocol: as §1, §3

Converted amounts (≈) assume the structure as drawn.

As for `Cn1nnc(-c2ccc(-c3ccc(N4C[C@H](Cn5ccnn5)OC4=O)cc3F)cn2)n1` [Example 1, (5R)-3-(3-Fluoro-4-(6-(2-methyl-2H-tetrazol-5-yl)pyrid-3-yl)phenyl)-5-(1H-1,2,3-triazol-1-ylmethyl)-1,3-oxazolidin-2-one], the MIC was 2 µg/mL (≈ 4.75 µM) in experiment [1]; 0.25 µg/mL (≈ 0.593 µM) in experiment [2]; 0.25 µg/mL (≈ 0.593 µM) in experiment [3]; < 0.06 µg/mL in experiment [4]; 0.25 µg/mL (≈ 0.593 µM) in experiment [5]; 0.5 µg/mL (≈ 1.19 µM) in experiment [6]. In experiment [7], this molecule had an MIC of 0.25 µg/mL (≈ 0.593 µM).

Values taken from patent publication US7498350B2, “Oxazolidinones as antibacterial agents” (AstraZeneca AB, priority 2002, dated 2009).
